In patent US11180462B2, “Microbiocidal oxadiazole derivatives” (SYNGENTA PARTICIPATIONS AG, priority 2015, dated 2021):

Experiments:
[1] = test system: Puccinia recondita f. Sp. Tritici; experiment: Fungicidal activity against Puccinia recondita f. sp. tritici / wheat / leaf disc curative (brown rust); type: in vivo; details: foliar, 24 h, 200 ppm in the applied formulation, wheat leaf segments, curative (applied 1 day after inoculation), compared to untreated control leaf disks, read-out: disease control
Method in brief: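 Scoring is percent disease control relative to untreated segments, made 6 to 8 days after treatment. Wheat (cv. Kanzler) leaf segments received the formulated, water-diluted compound one day post-inoculation with spores, having been kept dark at 19° C and 75% RH, then incubated under 12 h light/12 h dark at the same temperature and humidity.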

[2] = test system: Glomerella lagenarium (Colletotrichum lagenarium); experiment: Fungicidal activity against Glomerella lagenarium (Colletotrichum lagenarium) liquid culture / cucumber / preventative (anthracnose); type: cell-based; details: Colletotrichum orbiculare; 20 ppm in the applied formulation; liquid culture (PDB), growth inhibition measured photometrically after 3 to 4 days; compared to untreated control; read-out: disease control
Method in brief: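 Photometric read-out of fungal growth after 2–7 days, expressed as percent antifungal activity versus untreated check. Cryo-stored conidia in PDB; compound at 20 ppm; dark, 24 °C, 96% RH.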

[3] = test system: Puccinia recondita f. Sp. Tritici; experiment: Fungicidal activity against Puccinia recondita f. sp. tritici / wheat / leaf disc preventative (brown rust); type: in vivo; details: foliar, 200 ppm in the applied formulation, wheat leaf segments, preventative, compared to untreated control leaf disks, read-out: disease control
Method in brief: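 Compound application precedes infection: segments of wheat cv. Kanzler, sprayed at 200 ppm, are inoculated with a spore suspension after 1 day. Incubation is at 19° C. with 75% relative humidity and 12 h light/12 h darkness, and control versus untreated leaves is rated 7 to 9 days post-application.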

Phakopsora Pachyrhizi = experiment: Fungicidal activity against Phakopsora pachyrhizi / soybean / leaf disc preventative (Asian soybean rust); type: in vivo; details: foliar, 200 ppm in the applied formulation, soybean leaf disks, compared to untreated control leaf disks, read-out: disease control
Method in brief: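 Preventative soybean leaf-disc test: discs on water agar sprayed with diluted formulated compound, inoculated one day later with spores on the lower surface. Held 24–36 h dark at 20°C, 75% rh, then 12 h light/day; percent disease control versus untreated discs scored 12–14 days after application.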

C=CCN(Cc1ccc(-c2noc(C(F)(F)F)n2)cc1)C(=O)C1CC1C (stereo not drawn) [Compound 1.480, N-allyl-2-methyl-N-[[4-[5-(trifluoromethyl)-1,2,4-oxadiazol-3-yl]phenyl]methyl]-cyclopropane-carboxamide]
≥ 80%: pest or weed control at 200 ppm [1] | inhibition of growth at 20 ppm [2] | pest or weed control at 200 ppm [3] | pest or weed control at 200 ppm (Phakopsora Pachyrhizi)

C=CCN(Cc1ccc(-c2noc(C(F)(F)F)n2)cc1)C(=O)C(C)C [Compound 1.483, N-allyl-2-methyl-N-[[4-[5-(trifluoromethyl)-1,2,4-oxadiazol-3-yl]phenyl]methyl]-propanamide]
≥ 80%: pest or weed control at 200 ppm [1] | inhibition of growth at 20 ppm [2] | pest or weed control at 200 ppm [3] | pest or weed control at 200 ppm (Phakopsora Pachyrhizi)

C=CCN(Cc1ccc(-c2noc(C(F)(F)F)n2)cc1)C(=O)C1CC1(F)F (stereo not drawn) [Compound 1.484, N-allyl-2,2-difluoro-N-[[4-[5-(trifluoromethyl)-1,2,4-oxadiazol-3-yl]phenyl]methyl]-cyclopropane-carboxamide]
≥ 80%: pest or weed control at 200 ppm [1] | inhibition of growth at 20 ppm [2] | pest or weed control at 200 ppm [3] | pest or weed control at 200 ppm (Phakopsora Pachyrhizi)

C=CCN(Cc1ccc(-c2noc(C(F)(F)F)n2)cc1)C(=O)CCC [Compound 1.485, N-allyl-N-[[4-[5-(trifluoromethyl)-1,2,4-oxadiazol-3-yl]phenyl]methyl]-butanamide]
≥ 80%: pest or weed control at 200 ppm [1] | inhibition of growth at 20 ppm [2] | pest or weed control at 200 ppm [3] | pest or weed control at 200 ppm (Phakopsora Pachyrhizi)

C=CCN(Cc1ccc(-c2noc(C(F)(F)F)n2)cc1)C(=O)C(C)CC (stereo not drawn) [Compound 1.486, N-allyl-2-methyl-N-[[4-[5-(trifluoromethyl)-1,2,4-oxadiazol-3-yl]phenyl]methyl]-butanamide]
≥ 80%: pest or weed control at 200 ppm [1] | inhibition of growth at 20 ppm [2] | pest or weed control at 200 ppm [3] | pest or weed control at 200 ppm (Phakopsora Pachyrhizi)

C=CCN(Cc1ccc(-c2noc(C(F)(F)F)n2)cc1)C(=O)CCCOC [Compound 1.487, N-allyl-4-methoxy-N-[[4-[5-(trifluoromethyl)-1,2,4-oxadiazol-3-yl]phenyl]methyl]-butanamide]
≥ 80%: pest or weed control at 200 ppm [1] | inhibition of growth at 20 ppm [2] | pest or weed control at 200 ppm [3] | pest or weed control at 200 ppm (Phakopsora Pachyrhizi)

C=CCN(Cc1ccc(-c2noc(C(F)(F)F)n2)cc1)C(=O)C1(C)COC1 [Compound 1.488, N-allyl-3-methyl-N-[[4-[5-(trifluoromethyl)-1,2,4-oxadiazol-3-yl]phenyl]methyl]-oxetane-3-carboxamide]
≥ 80%: pest or weed control at 200 ppm [1] | inhibition of growth at 20 ppm [2] | pest or weed control at 200 ppm [3] | pest or weed control at 200 ppm (Phakopsora Pachyrhizi)

C=CCN(Cc1ccc(-c2noc(C(F)(F)F)n2)cc1)C(=O)C1CCCO1 (stereo not drawn) [Compound 1.489, N-allyl-N-[[4-[5-(trifluoromethyl)-1,2,4-oxadiazol-3-yl]phenyl]methyl]-tetrahydrofuran-2-carboxamide]
≥ 80%: pest or weed control at 200 ppm [1] | inhibition of growth at 20 ppm [2] | pest or weed control at 200 ppm [3] | pest or weed control at 200 ppm (Phakopsora Pachyrhizi)

C=CCN(Cc1ccc(-c2noc(C(F)(F)F)n2)cc1)C(=O)C1CC1F (stereo not drawn) [Compound 1.491, N-allyl-2-fluoro-N-[[4-[5-(trifluoromethyl)-1,2,4-oxadiazol-3-yl]phenyl]methyl]-cyclopropane-carboxamide]
≥ 80%: pest or weed control at 200 ppm [1] | inhibition of growth at 20 ppm [2] | pest or weed control at 200 ppm [3] | pest or weed control at 200 ppm (Phakopsora Pachyrhizi)

C=CCN(Cc1ccc(-c2noc(C(F)(F)F)n2)cc1)C(=O)C(C)OC (stereo not drawn) [Compound 1.492, N-allyl-2-methoxy-N-[[4-[5-(trifluoromethyl)-1,2,4-oxadiazol-3-yl]phenyl]methyl]-propanamide]
≥ 80%: pest or weed control at 200 ppm [1] | inhibition of growth at 20 ppm [2] | pest or weed control at 200 ppm [3] | pest or weed control at 200 ppm (Phakopsora Pachyrhizi)

C=CCN(Cc1ccc(-c2noc(C(F)(F)F)n2)cc1)C(=O)C1OCCO1 [Compound 1.493, N-allyl-N-[[4-[5-(trifluoromethyl)-1,2,4-oxadiazol-3-yl]phenyl]methyl]-1,3-dioxolane-2-carboxamide]
≥ 80%: pest or weed control at 200 ppm [1] | inhibition of growth at 20 ppm [2] | pest or weed control at 200 ppm [3] | pest or weed control at 200 ppm (Phakopsora Pachyrhizi)

C=CCN(Cc1ccc(-c2noc(C(F)(F)F)n2)cc1)C(=O)C1CC1 [Compound 1.494, N-allyl-N-[[4-[5-(trifluoromethyl)-1,2,4-oxadiazol-3-yl]phenyl]methyl]-cyclopropane-carboxamide]
≥ 80%: pest or weed control at 200 ppm [1] | inhibition of growth at 20 ppm [2] | pest or weed control at 200 ppm [3] | pest or weed control at 200 ppm (Phakopsora Pachyrhizi)

CCN(Cc1ccc(-c2noc(C(F)(F)F)n2)cc1)C(=O)C1CCCC1 [Compound 1.495, N-ethyl-N-[[4-[5-(trifluoromethyl)-1,2,4-oxadiazol-3-yl]phenyl]methyl]-cyclopentane-carboxamide]
≥ 80%: pest or weed control at 200 ppm [1] | inhibition of growth at 20 ppm [2] | pest or weed control at 200 ppm [3] | pest or weed control at 200 ppm (Phakopsora Pachyrhizi)

CCN(Cc1ccc(-c2noc(C(F)(F)F)n2)cc1)C(=O)CCOC [Compound 1.496, N-ethyl-3-methoxy-N-[[4-[5-(trifluoromethyl)-1,2,4-oxadiazol-3-yl]phenyl]methyl]-propanamide]
≥ 80%: pest or weed control at 200 ppm [1] | inhibition of growth at 20 ppm [2] | pest or weed control at 200 ppm [3] | pest or weed control at 200 ppm (Phakopsora Pachyrhizi)

CCC(=O)N(CC)Cc1ccc(-c2noc(C(F)(F)F)n2)cc1 [Compound 1.497, N-ethyl-N-[[4-[5-(trifluoromethyl)-1,2,4-oxadiazol-3-yl]phenyl]methyl]-propanamide]
≥ 80%: pest or weed control at 200 ppm [1] | inhibition of growth at 20 ppm [2] | pest or weed control at 200 ppm [3] | pest or weed control at 200 ppm (Phakopsora Pachyrhizi)

CCN(Cc1ccc(-c2noc(C(F)(F)F)n2)cc1)C(=O)C1CCC1 [Compound 1.498, N-ethyl-N-[[4-[5-(trifluoromethyl)-1,2,4-oxadiazol-3-yl]phenyl]methyl]-cyclobulane-carboxamide]
≥ 80%: pest or weed control at 200 ppm [1] | inhibition of growth at 20 ppm [2] | pest or weed control at 200 ppm [3] | pest or weed control at 200 ppm (Phakopsora Pachyrhizi)

CCN(Cc1ccc(-c2noc(C(F)(F)F)n2)cc1)C(=O)COC [Compound 1.499, N-ethyl-2-methoxy-N-[[4-[5-(trifluoromethyl)-1,2,4-oxadiazol-3-yl]phenyl]methyl]-acetamide]
≥ 80%: pest or weed control at 200 ppm [1] | inhibition of growth at 20 ppm [2] | pest or weed control at 200 ppm [3] | pest or weed control at 200 ppm (Phakopsora Pachyrhizi)

CCN(Cc1ccc(-c2noc(C(F)(F)F)n2)cc1)C(=O)C1CC1C (stereo not drawn) [Compound 1.500, N-ethyl-2-methyl-N-[[4-[5-(trifluoromethyl)-1,2,4-oxadiazol-3-yl]phenyl]methyl]-cyclopropane-carboxamide]
≥ 80%: pest or weed control at 200 ppm [1] | inhibition of growth at 20 ppm [2] | pest or weed control at 200 ppm [3] | pest or weed control at 200 ppm (Phakopsora Pachyrhizi)

CCN(Cc1ccc(-c2noc(C(F)(F)F)n2)cc1)C(=O)C(C)C [Compound 1.503]
≥ 80%: pest or weed control at 200 ppm [1] | inhibition of growth at 20 ppm [2] | pest or weed control at 200 ppm [3] | pest or weed control at 200 ppm (Phakopsora Pachyrhizi)

CCN(Cc1ccc(-c2noc(C(F)(F)F)n2)cc1)C(=O)C1CC1(F)F (stereo not drawn) [Compound 1.504, N-ethyl-2,2-difluoro-N-[[4-[5-(trifluoromethyl)-1,2,4-oxadiazol-3-yl]phenyl]methyl]-cyclopropane-carboxamide]
≥ 80%: pest or weed control at 200 ppm [1] | inhibition of growth at 20 ppm [2] | pest or weed control at 200 ppm [3] | pest or weed control at 200 ppm (Phakopsora Pachyrhizi)

CCCC(=O)N(CC)Cc1ccc(-c2noc(C(F)(F)F)n2)cc1 [Compound 1.505, N-ethyl-N-[[4-[5-(trifluoromethyl)-1,2,4-oxadiazol-3-yl]phenyl]methyl]-butanamide]
≥ 80%: pest or weed control at 200 ppm [1] | inhibition of growth at 20 ppm [2] | pest or weed control at 200 ppm [3] | pest or weed control at 200 ppm (Phakopsora Pachyrhizi)

CCC(C)C(=O)N(CC)Cc1ccc(-c2noc(C(F)(F)F)n2)cc1 (stereo not drawn) [Compound 1.506, N-ethyl-2-methyl-N-[[4-[5-(trifluoromethyl)-1,2,4-oxadiazol-3-yl]phenyl]methyl]-butanamide]
≥ 80%: pest or weed control at 200 ppm [1] | inhibition of growth at 20 ppm [2] | pest or weed control at 200 ppm [3] | pest or weed control at 200 ppm (Phakopsora Pachyrhizi)

CCN(Cc1ccc(-c2noc(C(F)(F)F)n2)cc1)C(=O)CCCOC [Compound 1.507, N-ethyl-4-methoxy-N-[[4-[5-(trifluoromethyl)-1,2,4-oxadiazol-3-yl]phenyl]methyl]-butanamide]
≥ 80%: pest or weed control at 200 ppm [1] | inhibition of growth at 20 ppm [2] | pest or weed control at 200 ppm [3] | pest or weed control at 200 ppm (Phakopsora Pachyrhizi)

CCN(Cc1ccc(-c2noc(C(F)(F)F)n2)cc1)C(=O)C1(C)COC1 [Compound 1.508, N-ethyl-3-methyl-N-[[4-[5-(trifluoromethyl)-1,2,4-oxadiazol-3-yl]phenyl]methyl]-oxetane-3-carboxamide]
≥ 80%: pest or weed control at 200 ppm [1] | inhibition of growth at 20 ppm [2] | pest or weed control at 200 ppm [3] | pest or weed control at 200 ppm (Phakopsora Pachyrhizi)
